Consider two compounds from article PMC6155239, “Targeting PFKFB3 radiosensitizes cancer cells and suppresses homologous recombination” (Nature Communications, 2018).

Data set [1] deals with T1, CDK3 (Homo sapiens, UniProt Q00526).
T1 construct: purchased DiscoverX (Eurofins) KINOMEscan / scanEDGE, inferred from the naming style
In words: KINOMEscan. The format is binding. To be noted: 2000 nM; read-out: Percent Control.

The target of data set [2] is T2, DCAMKL1 (Homo sapiens, UniProt O15075).
T2 construct: purchased DiscoverX (Eurofins) KINOMEscan / scanEDGE, inferred from the naming style
The data set is described as follows: KINOMEscan. The format is binding. To be noted: 2000 nM; read-out: Percent Control.

Data set [3] concerns the target T3, CDK9 (Homo sapiens, UniProt P50750).
T3 construct: purchased DiscoverX (Eurofins) KINOMEscan / scanEDGE, inferred from the naming style
In words: KINOMEscan. The data set is classed as binding. Particulars: 2000 nM; read-out: Percent Control.

In data set [4] the target is T4, CDK2 (Homo sapiens, UniProt P24941).
T4 construct: purchased DiscoverX (Eurofins) KINOMEscan / scanEDGE, inferred from the naming style
In words: KINOMEscan. The format is binding. Particulars: 2000 nM; read-out: Percent Control.

For data set [5], the target named is T5, ALK (Homo sapiens, UniProt Q9UM73).
T5 construct: purchased DiscoverX (Eurofins) KINOMEscan / scanEDGE, inferred from the naming style
In words: KINOMEscan. The data set is classed as binding. Particulars: 2000 nM; read-out: Percent Control.

For data set [6], the target named is T6, CSNK1G2 (Homo sapiens, UniProt P78368).
T6 construct: purchased DiscoverX (Eurofins) KINOMEscan / scanEDGE, inferred from the naming style
In words: KINOMEscan. Particulars: 2000 nM; read-out: Percent Control. The format is binding.

Data set [7] has as its target T7, CHEK1 (Homo sapiens, UniProt O14757).
T7 construct: purchased DiscoverX (Eurofins) KINOMEscan / scanEDGE, inferred from the naming style
The data set is described as follows: KINOMEscan. Particulars: 2000 nM; read-out: Percent Control. The data set is classed as binding.

In data set [8] the target is T8, ABL1-nonphosphorylated (Homo sapiens, UniProt P00519).
T8 construct: purchased DiscoverX (Eurofins) KINOMEscan / scanEDGE, inferred from the naming style
In words: KINOMEscan. The format is binding. To be noted: 2000 nM; read-out: Percent Control.

Data set [9] concerns the target T9, DYRK1B (Homo sapiens, UniProt Q9Y463).
T9 construct: purchased DiscoverX (Eurofins) KINOMEscan / scanEDGE, inferred from the naming style
In words: KINOMEscan. The data set is classed as binding. To be noted: 2000 nM; read-out: Percent Control.

Data set [10] concerns the target T10, AKT1 (Homo sapiens, UniProt P31749).
T10 construct: purchased DiscoverX (Eurofins) KINOMEscan / scanEDGE, inferred from the naming style
In words: KINOMEscan. The format is binding. To be noted: 2000 nM; read-out: Percent Control.

For data set [11], the target named is T11, IGF1R (Homo sapiens, UniProt P08069).
T11 construct: purchased DiscoverX (Eurofins) KINOMEscan / scanEDGE, inferred from the naming style
In words: KINOMEscan. The data set is classed as binding. Particulars: 2000 nM; read-out: Percent Control.

The target in data set [12] is T12, ADCK3 (Homo sapiens, UniProt Q8NI60).
T12 construct: purchased DiscoverX (Eurofins) KINOMEscan / scanEDGE, inferred from the naming style
The data set is described as follows: KINOMEscan. The format is binding. Particulars: 2000 nM; read-out: Percent Control.

Data set [13] deals with T13, AKT2 (Homo sapiens, UniProt P31751).
T13 construct: purchased DiscoverX (Eurofins) KINOMEscan / scanEDGE, inferred from the naming style
The data set is described as follows: KINOMEscan. The format is binding. Particulars: 2000 nM; read-out: Percent Control.

Data set [14] addresses T14, BRAF (Homo sapiens, UniProt P15056).
T14 construct: purchased DiscoverX (Eurofins) KINOMEscan / scanEDGE, inferred from the naming style
The data set is described as follows: KINOMEscan. The data set is classed as binding. Particulars: 2000 nM; read-out: Percent Control.

Data set [15] addresses T15, AURKA (Homo sapiens, UniProt O14965).
T15 construct: purchased DiscoverX (Eurofins) KINOMEscan / scanEDGE, inferred from the naming style
The data set is described as follows: KINOMEscan. The data set is classed as binding. To be noted: 2000 nM; read-out: Percent Control.

Data set [16] addresses T16, ACVR1B (Homo sapiens, UniProt P36896).
T16 construct: purchased DiscoverX (Eurofins) KINOMEscan / scanEDGE, inferred from the naming style
The data set is described as follows: KINOMEscan. The data set is classed as binding. To be noted: 2000 nM; read-out: Percent Control.

Data set [17] addresses T17, BTK (Homo sapiens, UniProt Q06187).
T17 construct: purchased DiscoverX (Eurofins) KINOMEscan / scanEDGE, inferred from the naming style
In words: KINOMEscan. The format is binding. Particulars: 2000 nM; read-out: Percent Control.

Data set [18] deals with T18, ABL1(E255K)-phosphorylated (Homo sapiens, UniProt P00519, E255K).
T18 construct: purchased DiscoverX (Eurofins) KINOMEscan / scanEDGE, inferred from the naming style
In words: KINOMEscan. The data set is classed as binding. To be noted: 2000 nM; read-out: Percent Control.

Data set [19] relates to U2OS cells. The data set is described as follows: DNA fiber assay. The format is cell-based. Particulars: 10 μM. The protocol: 1 × 10^5 cells were seeded into 6-well plates, 24 h later cells were treated with the indicated inhibitors or nucleosides, and 24 h later DNA was labeled with 25 μM CldU (Sigma, C6891) in pre-warmed DMEM for 20 min, washed and then labeled with 250 μM IdU (Sigma I7125) in pre-warmed DMEM for 20 min, before harvesting by scraping in cold PBS. Harvested cells were diluted to 1 × 10^6 cells/mL, spreading and staining was performed as described previously described. Fluorescence images were captured using a Zeiss LSM 780 inverted confocal microscope using a 63 × 1.4 oil immersion objective, excitation wavelengths of 488 and 555 nm, and analyzed using the ImageJ software. At least 300 unidirectional forks labeled with both CldU and IdU were measured for every condition.

In data set [20] the test system is U2OS cells. In words: Cell cycle analysis (propidium iodide, flow cytometry). The data set is classed as cell-based. To be noted: 24 h post-IR. Here is the method: For cell cycle analysis, cells were treated or transfected with siRNA as described and harvested at the indicated time points with trypsin. For studies using IR, cells were exposed to IR with 2 Gy, and harvested at the indicated time points with trypsin. The cells were washed in PBS and fixed with 70% ethanol in PBS at 4 °C for 1 h and then stored at −20 °C until staining. Ethanol was removed by centrifugation and cells were then washed in PBS before staining DNA with propidium iodide (PI) solution containing 40 μg/mL PI, 100 μg/mL RNase A, and 0.1% Triton X-100 (Sigma Aldrich). Cells were analyzed by flow cytometry on a FACS Navios (Beckman Coulter) using Kaluza software.
On the technique in general: In flow cytometry, cells or beads pass a laser one at a time.

In data set [21] the test system is BJ RAS cells. The data set is described as follows: Clonogenic survival, BJ RAS. The data set is classed as cell-based. To be noted: with and without IR (2 Gy). Here is the method:
(§1) U2OS cells were transfected with indicated siRNAs and 24 h later exposed to IR (2 Gy) or left untreated and allowed to recover for 4 h. One-hundred U2OS cells were then seeded into 6-well plates and after 10 days colonies were fixed and stained with 4% methylene blue (Sigma Aldrich) in methanol. BJ TERT (500 cells), BJ RAS (200 cells), or U2OS (200 cells) were seeded into 6-well plates 24 h prior to treatment with inhibitors as indicated or vehicle for 24 h and then subjected to IR (2 Gy). The inhibitors were washed out 72 h later and colonies were fixed 4 days (BJ RAS) or 7 days (BJ TERT) later with 4% methylene blue in methanol.

In data set [22] the test system is peripheral blood mononuclear cells (PBMCs). In words: Viability of PBMCs. The data set is classed as cell-based.
The subject of data set [23] is U2OS cells. In words: Clonogenic survival, U2OS. The data set is classed as cell-based. To be noted: U2OS pre-treated prior to IR, colonies 10 days post treatments. The protocol:
as §1

Data set [24] has as its system U2OS cells. The data set is described as follows: EdU incorporation in G2/M phase upon IR, flow cytometry. The data set is classed as cell-based. To be noted: 10 μM 6 h prior to IR 6 Gy.
Data set [25] deals with U2OS cells. In words: DDR signaling, western blot / RPA32 intensity. The data set is classed as cell-based. The protocol: Cells were lysed on ice using the NP-40 lysis buffer (50 mM Tris–HCl pH 8.0, 150 mM NaCl, 1% NP-40) supplemented with protease and phosphatase inhibitors (Roche). Protein lysates were quantified using the Pierce BCA Protein Assay Kit (ThermoFisher Scientific), equal amounts of protein were heated to 70 °C in NuPAGE LDS Sample Buffer (ThermoFisher Scientific) and loaded on Mini-PROTEAN® precast gels (Bio-Rad) and run at 120 V. Transfer to nitrocellulose membrane (Bio-Rad) was done using Trans-Blot Turbo Transfer System (Bio-Rad). Membranes were blocked for 1 h at RT in blocking buffer (5% BSA, 0.1% Tween-20 in PBS, or 1:1 Li-Cor Blocking Buffer/TBS + 0.05% Tween-20 (TBS-T)), incubated with primary antibodies overnight at 4 °C and then incubated 1 h at RT with secondary antibodies diluted at 1:10,000 in 1:1 Li-Cor blocking buffer/TBS-T. Bands were visualized with an Odyssey Fc Imager and analyzed with ImageJ or with Image Studio Software (Li-Cor Biosciences). Uncropped western blots are shown in Supplementary Figure 10, 11, 12, 13, 14, 15, 16.
(Immunoblotting shows a protein as a band on a membrane.)

T2 sequence (O15075 whole entry): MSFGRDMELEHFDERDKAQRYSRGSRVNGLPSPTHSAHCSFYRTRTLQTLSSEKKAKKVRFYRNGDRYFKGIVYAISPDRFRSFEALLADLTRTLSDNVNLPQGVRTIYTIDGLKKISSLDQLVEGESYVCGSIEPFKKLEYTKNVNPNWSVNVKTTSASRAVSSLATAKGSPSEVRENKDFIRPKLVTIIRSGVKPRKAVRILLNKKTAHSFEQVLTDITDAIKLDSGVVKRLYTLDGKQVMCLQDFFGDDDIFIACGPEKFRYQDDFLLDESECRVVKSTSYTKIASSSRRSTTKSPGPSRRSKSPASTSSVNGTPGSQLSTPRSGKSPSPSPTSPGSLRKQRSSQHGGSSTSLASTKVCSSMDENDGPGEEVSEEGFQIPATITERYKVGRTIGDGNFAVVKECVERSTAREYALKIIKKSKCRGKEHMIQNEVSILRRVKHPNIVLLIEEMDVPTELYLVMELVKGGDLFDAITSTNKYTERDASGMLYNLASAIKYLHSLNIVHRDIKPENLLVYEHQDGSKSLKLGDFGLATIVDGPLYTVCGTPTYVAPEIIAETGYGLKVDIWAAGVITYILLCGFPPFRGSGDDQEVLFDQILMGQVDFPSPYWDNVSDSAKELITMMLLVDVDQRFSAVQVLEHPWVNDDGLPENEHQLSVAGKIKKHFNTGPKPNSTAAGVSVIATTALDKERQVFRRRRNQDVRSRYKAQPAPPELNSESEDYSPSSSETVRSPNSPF
T15 sequence (O14965 whole entry): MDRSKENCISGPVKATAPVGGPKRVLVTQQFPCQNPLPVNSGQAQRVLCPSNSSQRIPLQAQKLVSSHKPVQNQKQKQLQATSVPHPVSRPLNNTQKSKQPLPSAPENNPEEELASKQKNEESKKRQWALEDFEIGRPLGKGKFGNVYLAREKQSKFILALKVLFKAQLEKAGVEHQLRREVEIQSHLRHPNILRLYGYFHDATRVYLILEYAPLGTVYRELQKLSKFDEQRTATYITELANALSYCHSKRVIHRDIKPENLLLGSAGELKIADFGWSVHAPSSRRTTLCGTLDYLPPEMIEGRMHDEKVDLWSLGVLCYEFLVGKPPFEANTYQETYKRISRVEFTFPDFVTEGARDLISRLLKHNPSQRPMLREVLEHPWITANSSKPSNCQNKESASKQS
T3 sequence (P50750 whole entry): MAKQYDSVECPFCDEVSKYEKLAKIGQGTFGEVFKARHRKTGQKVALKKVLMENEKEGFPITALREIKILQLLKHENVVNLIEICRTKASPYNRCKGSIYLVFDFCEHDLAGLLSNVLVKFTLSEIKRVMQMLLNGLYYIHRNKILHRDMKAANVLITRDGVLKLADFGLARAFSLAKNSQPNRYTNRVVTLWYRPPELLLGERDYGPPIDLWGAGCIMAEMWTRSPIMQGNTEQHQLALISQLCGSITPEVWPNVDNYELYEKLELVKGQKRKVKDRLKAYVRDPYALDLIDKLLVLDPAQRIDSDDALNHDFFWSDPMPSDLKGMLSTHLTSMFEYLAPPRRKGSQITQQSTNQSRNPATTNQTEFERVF
T13 sequence (P31751 whole entry): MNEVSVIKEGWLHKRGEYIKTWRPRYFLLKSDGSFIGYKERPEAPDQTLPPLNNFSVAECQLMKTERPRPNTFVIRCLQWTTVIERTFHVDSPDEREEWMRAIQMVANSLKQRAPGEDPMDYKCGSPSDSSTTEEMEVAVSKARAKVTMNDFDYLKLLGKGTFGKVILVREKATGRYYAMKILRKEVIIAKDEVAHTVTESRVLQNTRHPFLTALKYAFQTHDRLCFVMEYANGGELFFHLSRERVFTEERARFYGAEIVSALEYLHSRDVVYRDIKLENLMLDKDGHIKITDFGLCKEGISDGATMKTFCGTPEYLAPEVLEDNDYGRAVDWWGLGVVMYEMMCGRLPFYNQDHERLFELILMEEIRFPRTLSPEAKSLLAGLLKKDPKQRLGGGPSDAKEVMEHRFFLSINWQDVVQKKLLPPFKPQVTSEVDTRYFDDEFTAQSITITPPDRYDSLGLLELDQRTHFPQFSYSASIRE
T7 sequence (O14757 whole entry): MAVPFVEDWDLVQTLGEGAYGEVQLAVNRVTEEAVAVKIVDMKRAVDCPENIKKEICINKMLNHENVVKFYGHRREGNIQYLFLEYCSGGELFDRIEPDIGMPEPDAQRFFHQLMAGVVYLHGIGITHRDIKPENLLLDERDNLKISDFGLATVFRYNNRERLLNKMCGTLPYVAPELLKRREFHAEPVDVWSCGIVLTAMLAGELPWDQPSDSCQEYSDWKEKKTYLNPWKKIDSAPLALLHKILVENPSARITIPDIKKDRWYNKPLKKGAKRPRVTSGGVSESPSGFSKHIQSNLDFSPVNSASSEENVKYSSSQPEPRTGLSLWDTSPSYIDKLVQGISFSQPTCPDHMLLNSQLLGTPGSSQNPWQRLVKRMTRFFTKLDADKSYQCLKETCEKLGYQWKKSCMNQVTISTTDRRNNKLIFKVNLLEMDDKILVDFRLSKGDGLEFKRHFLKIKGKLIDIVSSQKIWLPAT
T16 sequence (P36896 24-505): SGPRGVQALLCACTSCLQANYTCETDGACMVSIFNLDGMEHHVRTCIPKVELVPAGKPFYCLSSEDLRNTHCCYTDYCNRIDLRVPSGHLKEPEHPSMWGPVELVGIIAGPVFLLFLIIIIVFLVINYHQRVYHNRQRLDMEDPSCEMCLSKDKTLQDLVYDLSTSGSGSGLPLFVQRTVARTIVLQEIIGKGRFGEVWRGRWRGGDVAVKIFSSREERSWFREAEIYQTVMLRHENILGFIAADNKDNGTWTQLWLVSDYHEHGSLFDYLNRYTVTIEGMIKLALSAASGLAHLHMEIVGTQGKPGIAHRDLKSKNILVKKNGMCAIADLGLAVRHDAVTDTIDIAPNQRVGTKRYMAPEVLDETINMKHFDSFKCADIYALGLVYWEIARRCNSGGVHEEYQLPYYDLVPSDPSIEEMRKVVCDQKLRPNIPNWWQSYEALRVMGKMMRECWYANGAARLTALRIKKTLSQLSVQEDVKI
T14 sequence (P15056 whole entry): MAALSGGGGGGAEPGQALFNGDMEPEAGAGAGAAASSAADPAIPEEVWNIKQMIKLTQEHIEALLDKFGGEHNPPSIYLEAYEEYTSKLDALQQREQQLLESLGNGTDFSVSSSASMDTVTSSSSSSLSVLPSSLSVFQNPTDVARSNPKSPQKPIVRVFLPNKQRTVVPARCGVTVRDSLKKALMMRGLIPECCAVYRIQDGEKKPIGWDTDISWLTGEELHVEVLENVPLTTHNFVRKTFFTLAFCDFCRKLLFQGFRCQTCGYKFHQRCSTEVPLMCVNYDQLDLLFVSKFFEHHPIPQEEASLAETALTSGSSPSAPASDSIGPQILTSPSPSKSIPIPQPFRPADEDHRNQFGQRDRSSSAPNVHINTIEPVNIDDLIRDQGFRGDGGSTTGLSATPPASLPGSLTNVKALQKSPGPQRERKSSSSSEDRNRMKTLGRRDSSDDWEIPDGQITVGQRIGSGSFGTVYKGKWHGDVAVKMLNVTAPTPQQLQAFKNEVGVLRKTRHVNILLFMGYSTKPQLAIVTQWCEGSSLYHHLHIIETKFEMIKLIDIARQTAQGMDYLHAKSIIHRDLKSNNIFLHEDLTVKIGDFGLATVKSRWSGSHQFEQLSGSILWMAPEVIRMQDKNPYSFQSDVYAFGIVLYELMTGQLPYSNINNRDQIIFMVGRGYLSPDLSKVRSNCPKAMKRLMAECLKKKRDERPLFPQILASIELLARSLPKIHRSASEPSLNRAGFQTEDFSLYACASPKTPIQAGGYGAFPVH
T18 sequence (P00519 whole entry E255K): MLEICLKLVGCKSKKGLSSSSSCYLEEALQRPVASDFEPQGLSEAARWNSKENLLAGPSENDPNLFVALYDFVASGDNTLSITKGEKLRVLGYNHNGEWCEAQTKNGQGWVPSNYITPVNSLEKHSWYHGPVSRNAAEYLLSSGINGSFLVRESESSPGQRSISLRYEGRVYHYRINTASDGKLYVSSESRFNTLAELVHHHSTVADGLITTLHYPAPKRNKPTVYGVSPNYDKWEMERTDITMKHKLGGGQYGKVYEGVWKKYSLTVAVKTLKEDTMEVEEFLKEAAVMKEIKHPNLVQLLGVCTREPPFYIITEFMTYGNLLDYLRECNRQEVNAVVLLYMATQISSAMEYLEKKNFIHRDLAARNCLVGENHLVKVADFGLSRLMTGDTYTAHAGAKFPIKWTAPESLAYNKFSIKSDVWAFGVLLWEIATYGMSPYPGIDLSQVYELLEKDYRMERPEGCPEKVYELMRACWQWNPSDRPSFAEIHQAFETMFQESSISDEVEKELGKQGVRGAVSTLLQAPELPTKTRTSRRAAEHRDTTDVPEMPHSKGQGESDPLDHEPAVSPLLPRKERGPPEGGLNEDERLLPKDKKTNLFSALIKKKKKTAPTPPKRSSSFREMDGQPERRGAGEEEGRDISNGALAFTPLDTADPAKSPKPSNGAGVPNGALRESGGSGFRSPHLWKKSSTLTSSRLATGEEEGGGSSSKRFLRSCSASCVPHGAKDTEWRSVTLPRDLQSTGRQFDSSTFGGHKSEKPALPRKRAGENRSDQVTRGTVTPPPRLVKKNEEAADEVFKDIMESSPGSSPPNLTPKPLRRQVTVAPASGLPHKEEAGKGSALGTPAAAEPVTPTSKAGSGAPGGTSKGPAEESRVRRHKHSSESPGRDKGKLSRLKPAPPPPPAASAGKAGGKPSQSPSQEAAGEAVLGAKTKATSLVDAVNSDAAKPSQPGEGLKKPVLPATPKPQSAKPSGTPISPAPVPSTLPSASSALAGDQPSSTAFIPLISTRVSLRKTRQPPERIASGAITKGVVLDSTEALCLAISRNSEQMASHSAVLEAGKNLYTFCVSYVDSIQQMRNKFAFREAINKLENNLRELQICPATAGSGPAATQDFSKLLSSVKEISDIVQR
T8 sequence (P00519 whole entry): as the sequence (P00519 whole entry E255K) above, with K255E counted along it

Turning to `O=C(O)c1ccc(NS(=O)(=O)c2cccc(-c3cc(F)ccc3O)c2)cc1O` [KAN0438241, 4-{[(5′-Fluoro-2′-hydroxybiphenyl-3-yl)sulfonyl]amino}-2-hydroxybenzoic acid], the remaining binding at 2 µM in data set [1] was found to be 97%; in [2], 95%; in data set [3], 100%; in [4], 100%; in data set [5], 100%; in [6], 97%. Moreover, the remaining binding at 2 µM in [7] stood at 89%; in data set [8], 100%; in data set [9] it was 86%; in [10] it was 100%; in [11], 100%; in [12] it was 100%. In addition, the remaining binding at 2 µM in data set [13] worked out at 97%; in data set [14], 100%; in data set [15] it was 97%; in data set [16], 100%; in [17], 100%; in data set [18], 100%.

In the case of `O=C(OCCO)c1ccc(NS(=O)(=O)c2cccc(-c3cc(F)ccc3O)c2)cc1O` [KAN0438757, 2-Hydroxyethyl-4-{[(5′-fluoro-2′-hydroxybiphenyl-3-yl)sulfonyl]amino}-2-hydroxybenzoate], in [19], the “incorporation of CldU and IdU / replication fork speed (in words)” value is listed as “severely decreased”. For the same compound, the “accumulation of cells in G2/M phase upon IR (in words)” value in data set [20] is reported as “increased accumulation of cells in the G2/M phase”. Besides, the “clonogenic survival of BJ RAS (in words)” value in data set [21] is “decreased clonogenic survival”. In [22], the “effect on viability of PBMCs” value is “not affected”. The “clonogenic survival in combination with IR (in words)” value in data set [23] is recorded as “dose-dependent radiosensitization”. For the same compound, the “IR-induced increase in EdU-positive cell population in G2/M phase (in words)” value in data set [24] is “impaired”. In addition, the “IR-induced phosphorylation of ATM, H2AX, or KAP-1 (in words)” value in data set [25] (10 μM 24 h) is “did not affect”. In addition, the “induction of RPA-coated ssDNA, p53, phosphorylation of ATR, ATM, Chk1, H2AX (in words)” value in data set [25] (no IR) was “did not induce”.
